Measurements from patent US12269800B2, “Delivery of therapeutic alkaloid compounds” (priority 2021, dated 2025).

Experiment: Hydrolysis Assay of Example A2, Condition 1 (SGF with pepsin, pH 1.5, 37° C.)
Type: physicochemical
Conditions: SGF with pepsin pH 1.5, 37° C.; for Condition 1 Conversion (%): 0.5 mM; for Condition 1 Conversion (%), second value of a/b: value after the slash

| Structure (SMILES) | Condition 1 Conversion (%) (time 1 h) | Condition 1 Conversion (%) (time 4 h) | Condition 1 Conversion (%) (time 24 h) | Condition 1 Conversion (%), second value of a/b (time 1 h) [%] | Condition 1 Conversion (%), second value of a/b (time 4 h) [%] | Condition 1 Conversion (%), second value of a/b (time 24 h) [%] | Condition 1 Conversion (%) (time 1 min) | Condition 1 Conversion (%) (time 5 min) | Condition 1 Conversion (%) (time 30 min) | Condition 1 Conversion (%), second value of a/b (time 1 min) [%] | Condition 1 Conversion (%), second value of a/b (time 5 min) [%] | Condition 1 Conversion (%), second value of a/b (time 30 min) [%] |
| --- | --- | --- | --- | --- | --- | --- | --- | --- | --- | --- | --- | --- |
| COc1ccc([C@@]23CCC(=NOCC(=O)OC(C)(C)C)C[C@@H]2N(C)CC3)cc1OC [Compound 202, tert-butyl 2-[[(3aS,7aS)-3a-(3,4-dimethoxyphenyl)-1-methyl-2,3,4,5,7,7a-hexahydroindol-6-ylidene]amino]oxyacetate] | 1.12 | 3.01 | 64.4 | 0 | 6.42 | 6.42 | – | – | – | – | – | – |
| COc1ccc([C@]23CCN(C)[C@H]2CC2(CC3)OCC(COCc3ccccc3)O2)cc1OC (some centres unmarked) [Compound 215] | 15.2 | 25.8 | 46.8 | – | – | – | 0 | 0 | 6.1 | – | – | – |
| COc1ccc([C@]23CCN(C)[C@H]2CC2(CC3)OCC(C)O2)cc1OC (stereo partly drawn) [Compound 211, (3′aS,7′aS)-3′a-(3,4-dimethoxyphenyl)-1′,4-dimethyl-spiro[1,3-dioxolane-2,6′-2,3,4,5,7,7a-hexahydroindole]] | 0 | 0 | 0 | – | – | – | 0 | 0 | 0 | – | – | – |
| COc1ccc([C@@]23CC/C(=N/OC(C)(C)OC)C[C@@H]2N(C)CC3)cc1OC [Compound 219, (Z,3aS,7aS)-3a-(3,4-dimethoxyphenyl)-N-(1-methoxy-1-methyl-ethoxy)-1-methyl-2,3,4,5,7,7a-hexahydroindol-6-imine] | 0 | 0 | 0 | 100 | 100 | 100 | 100 | 100 | 0 | 0 | 0 | 100 |
| COc1ccc([C@@]23CCC(=NOC4CCCCO4)C[C@@H]2N(C)CC3)cc1OC (stereo partly drawn) [Compound 206, (3aS,7aS)-3a-(3,4-dimethoxyphenyl)-1-methyl-N-tetrahydropyran-2-yloxy-2,3,4,5,7,7a-hexahydroindol-6-imine] | 7.83 | 0 | 0 | 2.57 | 77.75 | 100 | – | – | 1.41 | – | – | 0 |
| COc1ccc([C@@]23CCN(C)[C@@H]2CC2(CC3)OCCS2)cc1OC (some centres unmarked) [Compound 070] | 0 | 0 | 0 | – | – | – | 0 | 0 | 0 | – | – | – |
| COc1ccc([C@]23CCN(C)[C@H]2CC2(CC3)OC[C@H](c3cccnc3)O2)cc1OC (stereo partly drawn) [Compound 109, (3′aS,7′aS)-3′a-(3,4-dimethoxyphenyl)-1′-methyl-4-(3-pyridyl)spiro[1,3-dioxolane-2,6′-2,3,4,5,7,7a-hexahydroindole]] | 0 | 0 | 0 | – | – | – | 0 | 0 | 0 | – | – | – |
| COc1ccc([C@]23CCN(C)[C@H]2CC2(CC3)OCC(c3cccc([N+](=O)[O-])c3)O2)cc1OC (stereo partly drawn) [Compound 113, (3′aS,7′aS)-3′a-(3,4-dimethoxyphenyl)-1′-methyl-4-(3-nitrophenyl)spiro[1,3-dioxolane-2,6′-2,3,4,5,7,7a-hexahydroindole]] | 0 | 0 | 0 | – | – | – | 0 | 0 | 0 | – | – | – |
| COc1ccc([C@@]23CC/C(=N\OC(C)(C)OC)C[C@@H]2N(C)CC3)cc1OC [Compound 204, (E,3aS,7aS)-3a-(3,4-dimethoxyphenyl)-N-(1-methoxy-1-methyl-ethoxy)-1-methyl-2,3,4,5,7,7a-hexahydroindol-6-imine] | 0 | 0 | 0 | 100 | 100 | 100 | 100 | 100 | 0 | 0 | 0 | 100 |
| COc1ccc([C@]23CCN(C)[C@H]2CC2(CC3)OC[C@@H](c3ccccc3)O2)cc1OC (stereo partly drawn) [Compound 081, (3′aS,4R,7′aS)-3′a-(3,4-dimethoxyphenyl)-1′-methyl-4-phenyl-spiro[1,3-dioxolane-2,6′-2,3,4,5,7,7a-hexahydroindole]] | 0 | 0 | 0 | – | – | – | 0 | 0 | 0 | – | – | – |
| COc1cccc(C2COC3(CC[C@@]4(c5ccc(OC)c(OC)c5)CCN(C)[C@H]4C3)O2)c1 (stereo partly drawn) [Compound 111, (3′aS,7′aS)-3′a-(3,4-dimethoxyphenyl)-4-(3-methoxyphenyl)-1′-methyl-spiro[1,3-dioxolane-2,6′-2,3,4,5,7,7a-hexahydroindole]] | 0 | 0 | 0 | – | – | – | 0 | 0 | 0 | – | – | – |
| COc1ccc([C@]23CCN(C)[C@H]2CC2(CC3)OCCS2)cc1OC (some centres unmarked) [Compound 69] | 0 | 0 | 0 | – | – | – | 0 | 0 | 0 | – | – | – |
